In US12612622B2, “Targeted mutagenesis using base editors” (Qi Biodesign Biotechnology Company Limited, priority 2018, dated 2026):

Test system: OsACCase gene
Test: Base editing (pZRH-PBE + individual sgRNAs) of OsACCase functional domain in transgenic M0 rice plants
Type: in vivo
Settings: for Frequency of indel (%) / Frequency of substitution (%) / No. of WT / No. of indel / No. of substitution: transgenic M0 plants; for No. of WT / No. of indel / No. of substitution: per sgRNA target
Source text: For individual cloning, the following method is used. APOBEC1, partial nCas9 and UGI sequences (SEQ ID NO: 129) without BsaI were synthesized commercially (GenScript, Nanjing, China) and cloned into the pUC57 (SEQ ID NO: 130) as intermediate vector. […] The full length APOBEC1-nCas9-UGI was excised using XmaJI and SacI, then was subcloned into pHUE411 that had been digested using the same two enzymes. The resultant vector pZRH-PBE (SEQ ID NO: 133) was used to construct sgRNA expression plasmids using restriction enzyme site BsaI.

[1] = edited allele with the substitution of the same table line

R31: sgRNA in pZRH-PBE; OsACCase target site GACTGCAAAAGGCAATGTTCTGG (SEQ ID NO: 102) (expressed or natural sequence; target site or template, no part of the molecule)
No. of alleles [1]: 1
Frequency of indel (%): 0.0%
Frequency of substitution (%): 5.9%
No. of WT: 16
No. of indel: 0
No. of substitution: 1
No. of alleles (unedited target site sequence): 1

R32: sgRNA in pZRH-PBE; OsACCase target site CCCAGACCGCATTGAGTGCTATG (SEQ ID NO: 104) (expressed or natural sequence; target site or template, no part of the molecule)
No. of alleles [1]: 1
Frequency of indel (%): 10.5%
Frequency of substitution (%): 21.1%
No. of WT: 13
No. of indel: 2
No. of substitution: 4
No. of alleles (unedited target site sequence): 2

R33: sgRNA in pZRH-PBE; OsACCase target site CCTTTGTCTACATTCCCATGGCT (SEQ ID NO: 107) (expressed or natural sequence; target site or template, no part of the molecule)
No. of alleles [1]: 1
Frequency of indel (%): 5.9%
Frequency of substitution (%): 41.2%
No. of WT: 9
No. of indel: 1
No. of substitution: 7
No. of alleles (unedited target site sequence): 1

R34: sgRNA in pZRH-PBE; OsACCase target site CCAGTGGGTGTGATAGCTGTGGA (SEQ ID NO: 109) (expressed or natural sequence; the letters are possibly those of the target site)
No. of alleles (edited allele with the substitution of the same table line, edited allele (SEQ ID NO: 110)): 3
No. of alleles (edited allele with the substitution of the same table line, edited allele (SEQ ID NO: 111)): 2
No. of alleles (edited allele with the substitution of the same table line, edited allele (SEQ ID NO: 112)): 4
Frequency of indel (%): 0.0%
Frequency of substitution (%): 71.4%
No. of WT: 4
No. of indel: 0
No. of substitution: 10
No. of alleles (unedited target site sequence): 7

R35: sgRNA in pZRH-PBE; OsACCase target site CCAAGGGAAATGGTTAGGTGCTA (SEQ ID NO: 113) (guide CCAAGGGAAATGGTTAGGTGGTA; sgRNA expressed from vector pZRH-PBE, further chemistry not given here; the letters are possibly those of the target site)
No. of alleles [1]: 2
Frequency of indel (%): 0.0%
Frequency of substitution (%): 12.5%
No. of WT: 7
No. of indel: 0
No. of substitution: 1
No. of alleles (unedited target site sequence): 0

R36: sgRNA in pZRH-PBE; OsACCase target site CCTCGAGCGGCTATCCGTGGTGT (SEQ ID NO: 115) (expressed or natural sequence; the letters are possibly those of the target site)
No. of alleles [1]: 1
Frequency of indel (%): 0.0%
Frequency of substitution (%): 35.7%
No. of WT: 9
No. of indel: 0
No. of substitution: 5
No. of alleles (unedited target site sequence): 3

R37: sgRNA in pZRH-PBE; OsACCase target site CCTGAGAACTCGTGTGATCCTCG (SEQ ID NO: 119) (expressed or natural sequence; target site or template, no part of the molecule)
No. of alleles (edited allele with the substitution of the same table line, edited allele (SEQ ID NO: 120)): 1
No. of alleles (edited allele with the substitution of the same table line, edited allele (SEQ ID NO: 121)): 2
Frequency of indel (%): 45.5%
Frequency of substitution (%): 18.2%
No. of WT: 4
No. of indel: 5
No. of substitution: 2
No. of alleles (unedited target site sequence): 1

R38: sgRNA in pZRH-PBE; OsACCase target site CCTGTTGCATACATTCCTGAGAA (SEQ ID NO: 122) (expressed or natural sequence; target site or template, no part of the molecule)
Frequency of indel (%): 28.6%
Frequency of substitution (%): 35.7%
No. of WT: 5
No. of indel: 4
No. of substitution: 5
No. of alleles (unedited target site sequence): 4
